Earlier results, collected in patent US20190328772A1, “OPHTHALMIC COMPOSITIONS COMPRISING A CYCLODEXTRIN AS SOLE ACTIVE AGENT” (priority 2016, published 2019).
Read-outs that look alike come from different tables or passages of the source.

Experiments:
[1] = system: corneal epithelium of rabbits
mouse brown fat tissue = details: concentrations of 25-40%, 24 hours
drusen = details: 37° C., 24 hours

randomly methylated β-CD [RM-β-CD]
toxicity to the corneal epithelium of rabbits ([1]; concentration 5%): can be toxic

CC(O)COC[C@H]1O[C@@H]2O[C@H]3[C@H](O)[C@@H](O)[C@@H](O[C@H]4[C@H](O)[C@@H](O)[C@@H](O[C@H]5[C@H](O)[C@@H](O)[C@@H](O[C@H]6[C@H](O)[C@@H](O)[C@@H](O[C@H]7[C@H](O)[C@@H](O)[C@@H](O[C@H]8[C@H](O)[C@@H](O)[C@@H](O[C@H]1[C@H](O)[C@H]2O)O[C@@H]8COCC(C)O)O[C@@H]7COCC(C)O)O[C@@H]6COCC(C)O)O[C@@H]5COCC(C)O)O[C@@H]4COCC(C)O)O[C@@H]3COCC(C)O (stereo partly drawn) [HP-β-CD, Hydroxypropyl-β-cyclodextrin]
removal of mouse brown fat tissue (mouse brown fat tissue): able to partially remove mouse brown fat tissue | dissolving the lipid component in drusen (drusen; 40 ml of 25%, sections of a cut up human eye): efficacy in dissolving the lipid component in drusen | change of drusen by H&E staining (drusen; 40 ml of different concentrations, eye sections): no change | toxicity or irritation in rabbit eyes ([1]; rabbit, in vivo): not to be toxic or irritating

β-Cyclodextrin sulfobutyl ether [SBE-β-CD]
toxicity or irritation in rabbit eyes ([1]; solution of 10%): not to be toxic or irritating
